This is an account of results in patent US20240293562A1, “METHODS FOR USING NEUROTROPHIN RECEPTOR BINDING CONJUGATE COMPOSITIONS IN THE TREATMENT OF A NEUROLOGICAL CONDITION” (Manzanita Pharmaceuticals, Inc., priority 2020, published 2024).

The subject of the assay is Superior cervical ganglia (SCG) neurons. Briefly: Bioassay of neuronal survival in primary superior cervical ganglia neurons. In kind it is cell-based, Sprague Dawley rat. Particulars: primary SCG neurons from E-21 rat pups, microfluidic devices. From the text:
The SCG assay was adapted to compartmented cultures and updated to grow primary neurons in microfluidic devices SCG neurons were harvested from E-21 Sprague Dawley rat pups. If labeled NGF has similar bioavailability to the unlabeled NGF, i.e., TrkA binding sites remain intact. FIG. 2 (right) compares left panels of study article with right panels showing treatment with NGF only.

Consider nerve growth factor [NGF], for which the neuronal survival result is listed as “appear to show neuronal survival”.
